Patent US8809541B2, “Heterocyclic compound, and composition for treating inflammatory diseases using same” (Neopharm Co., Ltd., priority 2010, dated 2014)

How the values were obtained:
PAR-2 [1] = target: T1, PAR-2 (Homo sapiens, UniProt P55085); test: PathHunter β-arrestin GPCR assay; format: cell-based; set-up: expressed in transfected cells; host or cells: KNRK (Kirsten Murine Sarcoma Virus transformed rat kidney epithelial cells); conditions: β-arrestin accumulation
T1 sequence (P55085 26-397): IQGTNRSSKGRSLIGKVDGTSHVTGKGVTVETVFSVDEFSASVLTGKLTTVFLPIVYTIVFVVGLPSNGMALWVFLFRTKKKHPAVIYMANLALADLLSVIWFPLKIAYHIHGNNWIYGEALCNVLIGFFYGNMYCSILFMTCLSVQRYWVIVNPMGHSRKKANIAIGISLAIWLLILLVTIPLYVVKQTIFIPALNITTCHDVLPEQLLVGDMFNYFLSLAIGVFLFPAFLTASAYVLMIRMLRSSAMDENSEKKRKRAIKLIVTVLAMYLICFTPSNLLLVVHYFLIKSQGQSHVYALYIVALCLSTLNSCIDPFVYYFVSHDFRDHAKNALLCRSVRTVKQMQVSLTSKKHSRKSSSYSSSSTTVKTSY
Description: An in vitro assay protocol capable of detecting activation of PAR-2 was additively introduced besides the calcium immobilization assay, and activity of the selected material was measured. First, the PAR-2 inhibitory activity of Compound 98 was measured by using the PathHunter™ β-arrestin GPCR assay kit by DiscoveRx Company, capable of detecting accumulation of β-arrestin, which is an intercellular reaction material primarily generated by activation of PAR-2. As the measurement results, an IC50 value slightly different from the Calcium immobilization assay was observed (Table 1).

PAR-2 [2] = target: T1, PAR-2; test: Confocal microscopy of PAR-2 activation in KNRK-PAR-2 cell line; format: cell-based; set-up: expressed in transfected cells; host or cells: KNRK (Kirsten Murine Sarcoma Virus transformed rat kidney epithelial cells); conditions: [Compound 98]=200 μM, [trypsin]=1 μM, [SLIGKV]=100 μM, KNRK-PAR-2 cells
Description: In order to visually confirm activation of PAR-2, a cell line having the following structure was prepared referring to the existing reference documents, and activation of PAR-2 was observed by using a confocal microscopy. As a cell line, Kirsten Murine Sarcoma Virus transformed rat kidney epithelial cell (KNRK cell) was used, which is a cell line where, normally, PAR-2 is not expressed. In the KNRK cell, flag epitope was tagged to an N-terminal and Myc epitope was tagged to a C-terminal, so that a stable transfected cell was constructed. Flag and Myc of the thus prepared KNRK-PAR-2 cell line were subjected to double staining, and activation or non-activation of PAR-2 was observed by using the confocal microscopy ([trypsin]=1 μM, [SLIGKV(AP)]=100 μM). When the PAR-2 was not activated, Flag and Myc were double-stained and thus appears yellow in the merged image. However, when the PAR-2 was activated, Flag was separated away and thus a red image was shown.

nude mice (SKH-1) [3] = test: Oxazolone chronic dermatitis animal model; format: in vivo; conditions: compared with the control group
Description: Efficacy of a selected material was evaluated by using a chronic dermatitis animal model. An animal model of which chronic dermatitis was induced by continuously applying oxaozolone, which is a kind of hapten, to the nude mice was used. […] In order to construct a chronic dermatitis animal model, 5% of oxazolone was applied to 6-week nude mice (SKH-1) and thus sensitized, and 0.1% of oxazolone was applied once every two days from a week after, resulting in inducing dermatitis symptom. The sample was applied to an animal after induction at an interval of once a day for three days, and various dermal functions and skin thickness change were observed. Finally, skin biopsy was conducted and histological observation was conducted.
As a positive control group used in the experiment, 0.05% of desonide, which is relatively low potency steroid, was used, and the transepidermal water loss, the moisture content in the stratum corneum, and skin thickness change were observed.

PAR-2 [4] = target: T1, PAR-2; test: Calcium immobilization assay (Calcium-4 assay kit); format: cell-based; set-up: expressed in transfected cells; conditions: HCT-15 PAR-2-overexpressed cell line, activating peptide (AP) as activator
Description: In order to evaluate PAR-2 inhibitory activity of the synthesized material, first, an assay system capable of measuring the change in concentration of calcium ions in a cell in real-time was constructed, and then an evaluation was conducted by using the assay system. PAR-2 is a kind of G-protein coupled receptor (GPCR). When the PAR-2 is activated in the cell, phospholipase C-b (PLC-b) was activated to cleave phosphatidylinositol 4,5-bisphosphate (PIP2) into inositol triphosphate (IP3) and diacyl glycerol (DAG). The IP3 generated herein promotes secretion of calcium ions in an endoplasmic reticulum (ER), calcium ion reservoir in the cell, resulting in increasing calcium ions in the cell. An in vitro screening assay system capable of searching materials that may suppress the increase in concentration of calcium ions in the cell due to activation of PAR-2 was constructed based on the existing search results. As a PAR-2 activator used in the experiment, activating peptide (AP) was used. As a reagent for detecting the concentration of calcium ions in the cell, the Calcium-4 assay kit by Molecular Probe Company was used. HCT-15, a PAR-2-overexpressed cell line, was used as a cell line used in the experiment.
The PAR-2 inhibitory activity of the synthesized material was evaluated by using such the protocol, and the assay profile of Compound 98 synthesized in Example 1 was shown in FIG. 1.

nude mice (SKH-1) [5] = test: Recovery of acute skin barrier disruption (tape stripping); format: in vivo
Description: The recovery rate after acute skin barrier disruption was evaluated on a selected compound by using nude mice. Skins of both abdominal regions of each of 6-8 week aged nude mice (SKH-1) were subjected to repetitive tape stripping, so that transepidermal water loss reached a level of about 35˜40 g/m^2/hr, and then, respective samples were applied thereto. The transepidermal water loss was measured by using the TEWameter (Courage & Khazaka, Germany) immediately before and after skin barrier disruption and 3 hours and 6 hours after application, and the recovery rate of transepidermal water loss was calculated as follows.
(wherein, TEWLa is TEWL value immediately after barrier disruption, TEWLb is TEWL value at the baseline, and TEWLc is TEWL value at the indicated time.)

With “(2-methyl-1-m-tolyl-1H-benzo[d]imidazol-5-yl)(piperidin-1-yl)methanone [Compound 98]” the IC50 (PAR-2 [1]) was 95.3 µM, the “Activation of PAR-2 (Flag/Myc double staining image)” value (PAR-2 [2]) was “activation of PAR-2 was suppressed” and the “Recovery of transepidermal water loss” value (nude mice (SKH-1) [3]; FIG. 4) was “promoted recovery”. For the same substance, the “Recovery of moisture content in the stratum corneum” value (nude mice (SKH-1) [3]; FIG. 5) was “promoted recovery”, the “PCNA positive keratinocyte (PCNA staining)” value (nude mice (SKH-1) [3]; FIG. 7) was “statically significant decrease” and the IC50 (PAR-2 [4]) was 243 µM. For the same substance, the “Recovery rate of transepidermal water loss after acute skin barrier disruption” value (nude mice (SKH-1) [5]; 1.0% applied to skin, 3 and 6 hours after application) was “rapid recovery” and the “Activity in promoting the recovery after skin barrier disruption” value (nude mice (SKH-1) [5]; overall conclusion, FIG. 3) was “best activity in promoting the recovery after skin barrier disruption”.
